{"source": "patent EP1228058B1", "about": "“BENZOPYRANYL GUANIDINE DERIVATIVES, PROCESS FOR PREPARATION THEREOF, AND PHARMACEUTICAL COMPOSITIONS CONTAINING THEM” (Dongbu Hannong Chemical Co., Ltd., priority 1999, dated 2001)", "key": {"[1]": {"tested_on": "Rat aortic smooth muscle cells", "experiment": "Inhibition of proliferation of vascular smooth muscle cells ([3H]-thymidine incorporation into DNA)", "type": "cell-based", "details": "[^3H]-thymidine into DNA; angiotensin II (10^-7M) stimulated = 100; 72 hr; 4320 min", "method": "Inhibitory effects on cell proliferation was evaluated by measurement of incorporation of [^3H]-thymidine into DNA. Rat aortic smooth muscle cells were grown in 24 well plate for 3 days to near confluence in DMEM containing 10% FBS, then DMEM containing FBS was washed out. Cells were cultured again in DMEM without serum for 48 hr to be quiescent. […] During the last 4 hours of incubation, [^3H]-thymidine (1 uCi/ml) was added. […] The samples were filtered through glass microfiber filter (GF/B. Whatmann) under vacuum. After washing the filters 3 times with 2 ml of an aqueous solution of 5% TCA, the radioactivity incorporated into DNA was counted by Liquid Scintillation Counter (Packard, TRI-CARB, 2100TR), then calculated incorporation % of [^3H]-thymidine."}, "rat brain homogenate": {"tested_on": "rat brain homogenate", "experiment": "Inhibition of iron-induced lipid peroxidation (MDA quantification)", "type": "biochemical", "details": "100 uM; FeCl2 400 uM, 37 °C, 30 min", "method": "The rat brain was homogenized in a Krebs buffer (15 mM HEPES, 10 mM glucose, 140 mM NaCl, 3.6 mM KCl, 1.5 mM CaCl2, 1.4 mM KH2PO4, 0.7 mM MgCl2, pH 7.4) and the supernatant separated by centrifugation at 12,000 rpm for 10 min. was used for further experiments. FeCl2 was added to a final concentration of 400 uM in the brain homogenate which was then allowed to stand at 37 °C for 30 min. for the facilitation of oxidation. Each of the test compounds was added at a concentration of 100 uM and vehicle was used as a control.\nIron facilitates the oxidation of the brain homogenate to produce malondialdehyde (MDA), a lipid peroxidation product. Thus, the lipid peroxidation was determined by MDA quantification. The inhibitory effect of the test compounds against the lipid peroxidation was evaluated by calculating MDA reduction rate of the test compounds compared with that of the control group.\nTypically, the MDA quantification is achieved by reacting samples with 2-thiobarbituric acid (TBA) and measuring the absorbance at 530 nm. However, this method is unsuitable to treat samples on a large scale because of a boiling step. Thus, in this experiment, N-methyl-2-phenylindole was used instead of TBA. […] Bioxytech^R LPO-586 Kit was used for MDA quantification."}, "RAW 264.7 cells": {"tested_on": "RAW 264.7 cells", "experiment": "Inhibition of LPS-induced NO production (Griess reagent)", "type": "cell-based, murine", "details": "Mus musculus, RAW264.7, 100 uM, 24 hours", "method": "Using RPMI1640 media supplemented with 10% fetal bovine serum (FBS), RAW 264.7 cells (obtained from American Type Culture Collection), a murine macrophage cell line, were cultured at 37 °C in a 5% CO2 incubator. The RAW264.7 cells were harvested and cell density was adjusted to 5x10^5/ml with a RPMI medium supplemented with 0.5% FBS and plated at 5x10^4 cells/well to 96-well plates, which were then cultured for 20 hr in a CO2 incubator. After removal of the media, the cells were pre-treated for 1 hour with fresh media containing 33 uM and 100 uM of test compounds. The test compounds were dissolved in DMSO and diluted to respective concentration in the media. In order to minimize DMSO effect on the nitric oxide formation by the RAW264.7 cells in the wells, the media were allowed to contain DMSO at a concentration of 0.1 % or less.\nAfter completion of one hour pre-treatment, lipopolysaccharide (LPS, E. coli serotype 055:B5) was added to activate the cells, which were, then, maintained for 24 hours in a CO2 incubator. As a result of the activation of RAW264.7 cells with LPS, NO was formed. The NO released into the media was in a form of nitrite NO2^- and quantitatively measured using the Griess reagent. A control was treated only with vehicle instead of test compounds.\nThe inhibitory effects of the test compounds against NO production were determined as the reduction of NO quantity compared with that of the control group."}, "[2]": {"experiment": "Acute oral toxicity test in rats", "details": "rat, in vivo, single oral dose in 0.5% methyl cellulose, read-out: lethal dose (LD50) for oral administration", "summary_of_the_method": "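Six-week-old SPF SD rats, two per group, received a single oral dose of 1 g/kg suspended in 0.5% methyl cellulose (10 ml/kg). Survivors at the end of observation underwent haematology, serum chemistry, necropsy and histopathology of vital organs with macroscopic lesions.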"}}}
{"smiles": "COC(OC)[C@]1(C)Oc2ccc([N+](=O)[O-])cc2[C@@H](NC(=NC#N)Nc2cccc(C(F)(F)F)c2)[C@@H]1O", "note": "[Example 7, (2R, 3S, 4R)-N''-cyano-N-(6-nitro-3,4-dihydro-3-hydroxy-2-methyl-2-dimethoxymethyl-2H-benzopyran-4-yl)-N'-(3-trifluoromethylphenyl)guanidine]", "values": [{"measurement": "Incorporation %", "setting": "[1]", "value": 37.8, "unit": "%"}, {"measurement": "% Inhibition", "setting": "rat brain homogenate", "value": 70, "unit": "%"}, {"measurement": "inhibition at 100 µM", "setting": "RAW 264.7 cells", "value": 88, "unit": "%"}, {"measurement": "LD50", "setting": "[2]", "value": "> 1000", "unit": "mg/kg"}]}
